How the values were obtained:
[1] = biological target: AMP-activated protein kinase, AMPK; assay: Activation of AMPK in human HepG2 cells assessed as increase in ACC phosphorylation at Ser79 incubated for 1 hr; format: cell-based
[2] = biological target: AMP-activated protein kinase, AMPK; assay: Activation of AMPK in human HepG2 cells assessed as reduction in mitochondrial ATP production incubated for 1 hr; format: cell-based
[3] = Microsomal stability in human liver microsomes assessed as half life; format: ADME, Microsome
Cytochrome P450 3A4 [4] = biological target: T1, Cytochrome P450 3A4 (Homo sapiens, UniProt P08684); assay: Inhibition of CYP3A4 (unknown origin) in presence of NADPH; format: ADME
T1 sequence (P08684 whole entry): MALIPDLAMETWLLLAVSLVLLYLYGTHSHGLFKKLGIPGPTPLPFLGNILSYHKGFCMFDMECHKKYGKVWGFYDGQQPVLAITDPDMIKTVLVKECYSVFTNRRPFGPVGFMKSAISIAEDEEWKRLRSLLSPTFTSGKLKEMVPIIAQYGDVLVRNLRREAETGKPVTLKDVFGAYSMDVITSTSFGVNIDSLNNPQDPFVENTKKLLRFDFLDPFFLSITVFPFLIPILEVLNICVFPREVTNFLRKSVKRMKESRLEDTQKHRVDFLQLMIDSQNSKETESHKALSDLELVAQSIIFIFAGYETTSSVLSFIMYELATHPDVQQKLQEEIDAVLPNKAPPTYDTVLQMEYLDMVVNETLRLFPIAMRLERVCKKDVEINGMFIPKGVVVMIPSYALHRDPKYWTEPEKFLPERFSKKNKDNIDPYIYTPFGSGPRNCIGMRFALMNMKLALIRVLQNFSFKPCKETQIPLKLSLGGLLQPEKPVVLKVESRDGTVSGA

A549 = assay: Antiproliferative activity against human A549 cells assessed as cell growth inhibition incubated for 48 hrs by DAPI staining assay; format: functional, cell-based; conditions: A549, 48 h
NCI-H1299 = assay: Antiproliferative activity against human NCI-H1299 cells assessed as cell growth inhibition incubated for 48 hrs by DAPI staining assay; format: functional, cell-based; conditions: NCI-H1299, 48 h
hERG (KCNH2) [5] = biological target: T2, hERG (KCNH2) (Homo sapiens, UniProt Q12809); assay: Inhibition of human ERG at 3 uM; format: toxicity
T2 sequence (Q12809 whole entry): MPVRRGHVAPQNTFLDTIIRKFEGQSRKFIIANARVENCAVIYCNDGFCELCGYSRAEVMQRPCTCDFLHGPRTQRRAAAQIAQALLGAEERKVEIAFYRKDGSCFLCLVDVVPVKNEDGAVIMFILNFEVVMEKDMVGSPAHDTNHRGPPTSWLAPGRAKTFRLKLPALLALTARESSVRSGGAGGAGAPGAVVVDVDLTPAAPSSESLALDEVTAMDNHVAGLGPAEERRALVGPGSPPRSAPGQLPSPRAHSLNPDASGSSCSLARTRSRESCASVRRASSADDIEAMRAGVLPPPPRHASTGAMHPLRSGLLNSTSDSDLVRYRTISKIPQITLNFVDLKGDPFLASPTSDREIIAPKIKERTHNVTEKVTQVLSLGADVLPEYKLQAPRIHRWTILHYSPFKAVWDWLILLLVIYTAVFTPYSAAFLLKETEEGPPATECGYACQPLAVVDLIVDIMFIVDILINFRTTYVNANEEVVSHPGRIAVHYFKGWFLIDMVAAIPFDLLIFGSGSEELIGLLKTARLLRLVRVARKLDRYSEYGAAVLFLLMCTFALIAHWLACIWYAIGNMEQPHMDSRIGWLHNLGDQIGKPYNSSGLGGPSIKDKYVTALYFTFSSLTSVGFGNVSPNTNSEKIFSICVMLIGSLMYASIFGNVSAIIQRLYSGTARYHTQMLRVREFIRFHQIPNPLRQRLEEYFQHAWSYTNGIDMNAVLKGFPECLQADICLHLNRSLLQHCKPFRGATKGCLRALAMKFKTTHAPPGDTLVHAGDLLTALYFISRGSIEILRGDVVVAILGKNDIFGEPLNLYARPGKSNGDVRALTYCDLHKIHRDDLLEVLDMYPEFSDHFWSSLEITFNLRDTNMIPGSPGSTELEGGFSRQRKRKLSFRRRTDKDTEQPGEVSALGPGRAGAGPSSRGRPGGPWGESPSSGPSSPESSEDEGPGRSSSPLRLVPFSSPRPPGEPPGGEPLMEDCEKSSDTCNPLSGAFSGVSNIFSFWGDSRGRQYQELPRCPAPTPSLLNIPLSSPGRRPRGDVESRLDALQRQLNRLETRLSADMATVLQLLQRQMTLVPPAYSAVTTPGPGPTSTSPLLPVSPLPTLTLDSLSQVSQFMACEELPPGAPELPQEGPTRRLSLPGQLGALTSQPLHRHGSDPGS

Cytochrome P450 3A4 [6] = biological target: T1, Cytochrome P450 3A4; assay: Inhibition of CYP3A4 (unknown origin); format: ADME
[7] = Clearance in rat at 1 mg/kg,iv measured upto 10 hrs; format: ADME, organism-based; conditions: in vivo
hERG (KCNH2) [8] = biological target: T2, hERG (KCNH2); assay: Inhibition of human ERG at 10 uM; format: toxicity

Row | EC50 [1] [nM] | IC50 [2] [nM] | IC50 (A549) [nM] | IC50 (NCI-H1299) [nM] | SMILES | other results
1 | 16 |  |  |  | O=C(NC1CCN(Cc2ccccc2)CC1)c1ccc(C(=O)N2CCN(Cc3ccccc3)CC2)cn1 | 
2 | 413 |  |  |  | N#Cc1ccc(CN2CCC(NC(=O)c3ccc(C(=O)N4CCN(C(=O)c5ccc(F)cc5)CC4)cn3)CC2)cc1 | 
3 | 6 | 1 |  |  | N#Cc1ccc(CN2CCC(NC(=O)c3ccc(C(=O)N4CCC(C(F)c5ccc(F)cc5)CC4)cn3)CC2)cc1 (stereo not drawn) | half-life [3]: 8 min; IC50 (Cytochrome P450 3A4 [4]): 9800 nM
4 | 1000 |  | 8790 | 11000 | COc1ccc(C(=O)C2CCN(C(=O)c3ccc(C(=O)NC4CCN(Cc5ccc(NC(C)=O)cc5)CC4)cn3)CC2)cc1 | 
5 | 5 | 794 |  |  | N#Cc1ccc(CN2CCC(NC(=O)c3ccc(C(=O)N4CCC(C(=O)c5ccc(C#N)cc5)CC4)cn3)CC2)cc1 | inhibition at 3 µM (hERG (KCNH2) [5]): 54%
6 | 3 | 125 |  |  | N#Cc1ccc(CN2CCC(NC(=O)c3ccc(C(=O)N4CCC(Oc5ccc(C#N)cc5)CC4)cn3)CC2)cc1 | half-life [3]: 30 min; IC50 (Cytochrome P450 3A4 [4]): 3500 nM; inhibition at 3 µM (hERG (KCNH2) [5]): 47%
7 | 2000 |  | 6270 | 8700 | CS(=O)(=O)c1ccc(C(=O)C2CCN(C(=O)c3ccc(C(=O)NC4CCN(Cc5ccc(F)cc5)CC4)cn3)CC2)cc1 | inhibition at 3 µM (hERG (KCNH2) [5]): 83%
8 | 532 |  |  |  | CC(C)(C)C(=O)N1CCN(C(=O)c2ccc(C(=O)NC3CCN(Cc4ccc(C#N)cc4)CC3)nc2)CC1 | 
9 | 110 |  |  |  | N#Cc1ccc(CN2CCC(NC(=O)c3ccc(C(=O)N4CCC(Cc5ccccc5)CC4)cn3)CC2)cc1 | 
10 | 360 |  |  |  | N#Cc1ccc(CN2CCC(NC(=O)c3ccc(C(=O)N4CCN(S(=O)(=O)c5ccccc5)CC4)cn3)CC2)cc1 | 
11 | 86 |  | 10400 | 10900 | N#Cc1ccc(CN2CCC(NC(=O)c3ccc(C(=O)N4CCC(C(=O)c5ccc(-n6cccn6)cc5)CC4)nc3)CC2)cc1 | 
12 | 1500 |  | 7160 | 8720 | COc1ccc(CN2CCC(NC(=O)c3ccc(C(=O)N4CCC(C(=O)c5ccc(S(C)(=O)=O)cc5)CC4)nc3)CC2)cc1 | 
13 | 2 | 21 |  |  | N#Cc1ccc(CN2CCC(NC(=O)c3ccc(C(=O)N4CCC(C(=O)c5ccc(F)cc5)CC4)cn3)CC2)cc1 | 
14 |  |  | 9140 | 5520 | COc1ccc(C(=O)C2CCN(C(=O)c3ccc(C(=O)NC4CCN(Cc5ccc(S(C)(=O)=O)cc5)CC4)cn3)CC2)cc1 | 
15 | 300 |  |  |  | O=C(NC1CCN(C(=O)C2CCCCC2)CC1)c1ccc(C(=O)N2CCN(Cc3ccc(F)cc3)CC2)cn1 | 
16 | 11 | 60 |  |  | COc1ccc(OC2CCN(C(=O)c3ccc(C(=O)NC4CCN(Cc5ccc(C#N)cc5)CC4)nc3)CC2)cc1 | half-life [3]: 68 min; IC50 (Cytochrome P450 3A4 [4]): > 10000 nM; IC50 (Cytochrome P450 3A4 [6]): > 10000 nM; inhibition at 3 µM (hERG (KCNH2) [5]): 46%; clearance [7]: 71 mL/min/kg
17 | 55 | 619 |  |  | N#Cc1ccc(CN2CCC(NC(=O)c3ccc(C(=O)N4CCC(C(O)c5ccc(F)cc5)CC4)cn3)CC2)cc1 (stereo not drawn) | 
18 | 92 | 476 |  |  | N#Cc1ccc(CN2CCC(NC(=O)c3ccc(C(=O)N4CCC(Oc5ccc(C#N)cc5)CC4)nc3)CC2)cc1 | 
19 | 2790 |  |  |  | CC(C)(c1ccccc1)N1CCC(NC(=O)c2ccc(C(=O)N3CCN(Cc4ccc(F)cc4)CC3)cn2)CC1 | 
20 | 20 | 1660 | 5050 | 5390 | N#Cc1ccc(CN2CCC(NC(=O)c3ccc(C(=O)N4CCC(C(=O)c5ccc(N6CCCC6)cc5)CC4)nc3)CC2)cc1 | 
21 | 41 | 2310 | > 20000 | > 20000 | COc1ccc(CN2CCC(NC(=O)c3ccc(C(=O)N4CCC(C(=O)c5ccc(OC)cc5)CC4)nc3)CC2)cc1 | inhibition at 3 µM (hERG (KCNH2) [5]): 70%
22 | 804 |  |  |  | N#Cc1ccc(S(=O)(=O)N2CCC(NC(=O)c3ccc(C(=O)N4CCN(Cc5ccc(F)cc5)CC4)cn3)CC2)cc1 | 
23 | 1000 |  | 8990 | 13800 | COc1ccc(C(=O)C2CCN(C(=O)c3ccc(C(=O)NC4CCN(Cc5ccc(N)cc5)CC4)cn3)CC2)cc1 | 
24 | 240 |  |  |  | O=C(NC1CCN(C(=O)c2ccccc2)CC1)c1ccc(C(=O)N2CCN(Cc3ccc(F)cc3)CC2)cn1 | 
25 | 1050 |  | 13400 | > 20000 | COc1ccc(C(=O)C2CCN(C(=O)c3ccc(C(=O)NC4CCN(Cc5ccc(C(=O)N(C)C)cc5)CC4)cn3)CC2)cc1 | 
26 | 10000 |  |  |  | O=C(NC1CCN(Cc2ccccc2)CC1)c1ccc(C(=O)NC2CCN(Cc3ccccc3)CC2)nc1 | 
27 | 12 | 730 | 8670 | 9270 | O=C(NC1CCN(Cc2ccc(F)cc2)CC1)c1ccc(C(=O)N2CCC(C(=O)c3ccc(N4CCCC4)cc3)CC2)nc1 | half-life [3]: 63 min; inhibition at 10 µM (hERG (KCNH2) [8]): 82%; clearance [7]: 269 mL/min/kg

Row | EC50 [1] [nM] | IC50 [2] [nM] | IC50 (A549) [nM] | IC50 (NCI-H1299) [nM] | SMILES | other results
28 | 1 | 7 |  |  | COc1ccc(CC2CCN(C(=O)c3ccc(C(=O)NC4CCN(Cc5ccc(C#N)cc5)CC4)nc3)CC2)cc1 | half-life [3]: 46 min; IC50 (Cytochrome P450 3A4 [4]): > 10000 nM; IC50 (Cytochrome P450 3A4 [6]): 2000 nM
29 | 13 | 522 |  |  | N#Cc1ccc(CN2CCC(NC(=O)c3ccc(C(=O)N4CCC(Oc5ccc(F)cc5F)CC4)nc3)CC2)cc1 | inhibition at 3 µM (hERG (KCNH2) [5]): 36%
30 | 1 |  |  |  | CC1(C)CN(C(=O)c2ccc(C(=O)NC3CCN(Cc4ccc(C#N)cc4)CC3)nc2)CCN1Cc1ccc(F)cc1 | 
31 | 437 |  | 4820 | 6310 | N#Cc1ccc(CN2CCC(NC(=O)c3ccc(C(=O)N4CCC(C(=O)c5ccc(-n6cncn6)cc5)CC4)nc3)CC2)cc1 | 
32 | 35 | 1390 |  |  | O=C(NC1CCN(Cc2ccccc2)CC1)c1ccc(C(=O)N2CCN(Cc3ccccc3)CC2)nc1 | 
33 | 14 | 33 |  |  | N#Cc1ccc(CC2CCN(C(=O)c3ccc(C(=O)NC4CCN(Cc5ccc(C#N)cc5)CC4)nc3)CC2)cc1 | half-life [3]: 14 min
34 | 21 | 890 | 5930 | 6580 | O=C(NC1CCN(Cc2ccc(F)cc2)CC1)c1ccc(C(=O)N2CCC(C(=O)c3ccc(-n4cccn4)cc3)CC2)nc1 | inhibition at 10 µM (hERG (KCNH2) [8]): 85%
35 | 1 |  |  |  | N#Cc1ccc(CN2CCC(NC(=O)c3ccc(C(=O)N4CCN(Cc5ccc(F)cc5)CC4)cn3)CC2)cc1 | half-life [3]: 55 min; inhibition at 3 µM (hERG (KCNH2) [5]): 36%; clearance [7]: 200 mL/min/kg
36 | 950 |  |  |  | N#Cc1ccc(C(=O)N2CCC(NC(=O)c3ccc(C(=O)N4CCN(Cc5ccc(F)cc5)CC4)cn3)CC2)cc1 | 
37 | 1390 |  |  |  | N#Cc1ccc(CN2CCC(NC(=O)c3ccc(C(=O)N4CCN(C(=O)c5ccccc5)CC4)cn3)CC2)cc1 | 
38 | 466 |  |  |  | N#Cc1ccc(CN2CCC(NC(=O)c3ccc(C(=O)N4CCN(Cc5ccc(F)cc5)C(=O)C4)cn3)CC2)cc1 | 
39 | 129 |  |  |  | CC(c1ccccc1)N1CCC(NC(=O)c2ccc(C(=O)N3CCN(Cc4ccc(F)cc4)CC3)cn2)CC1 (stereo not drawn) | 
40 | 2000 |  | 6720 | 7190 | CS(=O)(=O)c1ccc(C(=O)C2CCN(C(=O)c3ccc(C(=O)NC4CCN(Cc5ccc(C#N)cc5)CC4)cn3)CC2)cc1 | 
41 | 18 | 1870 |  |  | N#Cc1ccc(CN2CCC(NC(=O)c3ccc(C(=O)N4CCC(C(=O)c5ccc(F)cc5F)CC4)nc3)CC2)cc1 | inhibition at 3 µM (hERG (KCNH2) [5]): 64%
42 | 9 | 820 | > 20000 | > 20000 | COc1ccc(C(=O)C2CCN(C(=O)c3ccc(C(=O)NC4CCN(Cc5ccc(OC(F)(F)F)cc5)CC4)cn3)CC2)cc1 | inhibition at 10 µM (hERG (KCNH2) [8]): 21%
43 | 6 |  |  |  | CC(C)(c1ccc(F)cc1)N1CCN(C(=O)c2ccc(C(=O)NC3CCN(Cc4ccc(C#N)cc4)CC3)nc2)CC1 | 
44 | 2 | 16 |  |  | N#Cc1ccc(CN2CCC(NC(=O)c3ccc(C(=O)N4CCC(F)(C(=O)c5ccc(F)cc5)CC4)cn3)CC2)cc1 | half-life [3]: 27 min; IC50 (Cytochrome P450 3A4 [4]): > 10000 nM; IC50 (Cytochrome P450 3A4 [6]): > 10000 nM
45 | 175 |  |  |  | COc1ccc(C(=O)N2CCN(C(=O)c3ccc(C(=O)NC4CCN(Cc5ccc(C#N)cc5)CC4)nc3)CC2)cc1 | 
46 | 27 | 8 |  |  | N#Cc1ccc(CN2CCC(NC(=O)c3ccc(C(=O)N4CCC(C(=O)c5ccc(F)cc5F)CC4)cn3)CC2)cc1 | half-life [3]: 63 min; IC50 (Cytochrome P450 3A4 [4]): > 10000 nM; IC50 (Cytochrome P450 3A4 [6]): > 10000 nM; inhibition at 3 µM (hERG (KCNH2) [5]): 34%
47 | 393 |  |  |  | N#Cc1ccc(CN2CCC(NC(=O)c3ccc(C(=O)N4CCN(S(=O)(=O)c5ccc(F)cc5)CC4)cn3)CC2)cc1 | 
48 | 4 | 22 |  |  | N#Cc1ccc(CN2CCC(NC(=O)c3ccc(C(=O)N4CCC(Oc5ccc(F)cc5F)CC4)cn3)CC2)cc1 | 
49 | 548 |  |  |  | COc1ccc(S(=O)(=O)N2CCN(C(=O)c3ccc(C(=O)NC4CCN(Cc5ccc(C#N)cc5)CC4)nc3)CC2)cc1 | 
50 | 57 | 200 | 13000 | 8400 | COc1ccc(CN2CCC(NC(=O)c3ccc(C(=O)N4CCC(C(=O)c5ccc(N6CCCC6)cc5)CC4)nc3)CC2)cc1 | 
51 | 312 |  | 15100 | 15100 | N#Cc1ccc(CN2CCC(NC(=O)c3ccc(C(=O)N4CCC(C(=O)c5ccc(-n6ccnc6)cc5)CC4)nc3)CC2)cc1 | 
52 | 10000 |  |  |  | O=C(c1ccc(C(=O)N2CCN(Cc3ccccc3)CC2)nc1)N1CCN(Cc2ccccc2)CC1 | 
53 | 9 | 1280 | 5060 | 8280 | O=C(NC1CCN(Cc2ccc(OC(F)(F)F)cc2)CC1)c1ccc(C(=O)N2CCC(C(=O)c3ccc(N4CCCC4)cc3)CC2)nc1 | 
54 | 27 | 2390 | > 20000 | > 20000 | COc1ccc(C(=O)C2CCN(C(=O)c3ccc(C(=O)NC4CCN(Cc5ccc(F)cc5)CC4)cn3)CC2)cc1 | half-life [3]: 71 min; inhibition at 3 µM (hERG (KCNH2) [5]): 64%

— ChEMBL document CHEMBL5108030, “Structure activity relationships leading to the identification of the indirect activator of AMPK, R419” (Bioorg Med Chem, 2022)
